In US6602676B1, “Testing method” (Milk Development Council, priority 1999, dated 2003):

System: cows with luteal P4 insufficiency
Assay: Study II: pregnancy rate after P4 supplementation with CIDR on Day 5 post AI in cows with luteal P4 insufficiency
Type: in vivo, Holstein-Friesian cows
Details: mean milk P4 on Day 5 post AI 1 to 1.99 ng/ml; CIDR inserted Day 5 post AI for seven days
Protocol: Milk samples for P4 assay and reproductive data were collected from British Friesian and Holstein-Friesian cows in seven commercial herds. The cows were housed in a free-stall system and fed rations to meet their production and maintenance requirements. Data on calving date, parity, AI date and pregnancy were recorded. For the preliminary study, milk samples were collected daily for P4 determination from Day 7 postpartum until 100 days of the next gestation. The sampling protocol for animals in Studies I and II was limited to three milk samples per animal on Days 0, 5 and 24 post AI. […]
Milk P4 concentrations in an un-extracted aliquot of whole milk were measured using either radio immunoassay (RIA) as described by Lamming and Bulman (Lamming, G. E. and D. C. Bulman (1976) Br. Vet. J. 132: 507-517) and Bulman and Lamming (Bulman D. C. and G. E. Lamming (1978) J. Reprod. Fertil. 54: 447-458) or enzyme linked immunosorbent assay (ELISA) kit (Ridgeway Science Ltd., Gloucestershire, UK) as illustrated by Darwash et al. (Darwash A. O et al (1999b) Anim Sci. (in press)). All samples and quality controls (QC) were assayed in duplicate and the mean value of both readings were used to indicate milk P4 concentrations. […]
Following determination of pregnancy, the accuracy of using milk P4 concentrations on Day 24 post AI to predict pregnancy rates was calculated. […]

Which “Pregnancy (%), treated” value does the source give for `CC(=O)[C@H]1CC[C@H]2[C@@H]3CCC4=CC(=O)CC[C@]4(C)[C@H]3CC[C@]12C` [P4, progesterone] here?
The value was 57.9%.
